Reference: patent publication US12480137B2, “Plants having increased tolerance to herbicides” (BASF SE, priority 2014, dated 2025)

Assays:
Format in all cases: in vivo, Arabidopsis thaliana
[1] = tested on: Cesa1_P1010L, fpx2-2 mutant line; assay: Greenhouse phytotox, pre-emergent treatment
Procedure: (§1) Additionally, M2 or M3 Arabidopsis plants are tested for improved tolerance to cellulose biosynthesis-inhibiting herbicides in greenhouse studies (e. g. with the following cellulose biosynthesis-inhibiting herbicides: 6-cyclopentyl-N4-(2,3,4,5,6-pentafluorophenyl)-1,3,5-triazine-2,4-diamine; 6-(1-fluoro-1-methyl-ethyl)-N4-(2,3,4,5,6-pentafluorophenyl)-1,3,5-triazine-2,4-diamine; N4-(4-chloro-3,5,6-trifluoro-2-pyridyl)-6-(1-fluoro-1-methyl-ethyl)-1,3,5-triazine-2,4-diamine; 6-(2,6-difluorophenyl)-N4-(2,3,5,6-tetrafluorophenyl)-1,3,5-triazine-2,4-diamine; N4-(4-bromo-2,3,5,6-tetrafluoro-phenyl)-6-(1-fluoro-1-methyl-ethyl)-1,3,5-triazine-2,4-diamine.

[2] = tested on: Cesa3_S983F, fpx1-3 mutant line; assay: Greenhouse phytotox, pre-emergent treatment
Procedure: as §1

[3] = tested on: Cesa1_G1013R, fpx2-1 mutant line; assay: Greenhouse phytotox, pre-emergent treatment
Procedure: as §1

[4] = tested on: Cesa1_G1009D, fpx2-3 mutant line; assay: Greenhouse phytotox, pre-emergent treatment
Procedure: as §1

[5] = tested on: Cesa3_S1040L, fpx1-1 mutant line; assay: Greenhouse phytotox, pre-emergent treatment
Procedure: as §1

[6] = tested on: Cesa3_S1037F, fpx1-2 mutant line; assay: Greenhouse phytotox, pre-emergent treatment
Procedure: as §1

[7] = tested on: A. thaliana WT L. erecta; assay: Greenhouse phytotox, pre-emergent treatment
Procedure: as §1

[8] = tested on: Arabidopsis mutant line Cesa1_P1010L; assay: Growth inhibition of Arabidopsis lines in 48-well plates, tolerance factor from IC50; conditions: growth inhibition seven to ten days after seeding
Text: (§2) For selection of cellulose biosynthesis inhibitor resistant plants EMS mutagenized seed populations of Arabidopsis thaliana are used. EMS mutagenized seed populations are either bought from Lehle Seeds (1102 South Industrial Blvd. Suite D, Round Rock, Texas USA) or are generated as described elsewhere (Heim D R, et. al. (1989) Plant Physiol. 90: 146-150). Causative mutations in CESA wildtype sequences (e.g. SEQ ID NO: 1 or 3) are identified as described by Scheible W R et. al. (2001, Proc. Natl. Acad. of Sci. 98: 10079-10084), McCourt et. al. (WO2013/142968) or with the use of next generation sequencing methods as described by Austin R S, et. al. (2011) Plant Journal 67: 715-725.
(§3) Selected Arabidopsis thaliana lines were assayed for improved resistance to azines like 6-cyclopentyl-N4-(2,3,4,5,6-pentafluorophenyl)-1,3,5-triazine-2,4-diamine; 6-(1-fluoro-1-methyl-ethyl)-N4-(2,3,4,5,6-pentafluorophenyl)-1,3,5-triazine-2,4-diamine; 6-cyclohexyl-N2-(2,3,4,5,6-pentafluorophenyl)-1,3,5-triazine-2,4-diamine; 6-(2,6-difluorophenyl)-N2-(2,3,5,6-tetrafluorophenyl)-1,3,5-triazine-2,4-diamine; N2-(4-chloro-3,5,6-trifluoro-2-pyridyl)-6-(1-fluoro-1-methyl-ethyl)-1,3,5-triazine-2,4-diamine in 48-well plates. Therefore, M2 or M3 seeds are surface sterilized by stirring for 5 min in ethanol+water (70+30 by volume), rinsing one time with ethanol+water (70+30 by volume) and two times with sterile, deionized water. The seeds are resuspended in 0.1% agar dissolved in water (w/v) Four to five seeds per well are plated on solid nutrient medium consisting of half-strength murashige skoog nutrient solution, pH 5.8 (Murashige and Skoog (1962) Physiologia Plantarum 15: 473-497). Compounds are dissolved in dimethylsulfoxid (DMSO) and added to the medium prior solidification (final DMSO concentration 0.1%). Multi well plates are incubated in a growth chamber at 22° C., 75% relative humidity and 110 μmol Phot*m^−2*s^−1 with 14:10 h light:dark photoperiod. Growth inhibition is evaluated seven to ten days after seeding in comparison to wild type plants. Tolerance factors are calculated based on IC50 values of growth inhibition of transformed versus non-transformed Arabidopsis plants (Table 3).

[9] = tested on: wildtype Arabidopsis plants; assay: as above; conditions: growth inhibition seven to ten days after seeding
Text: as §2, §3

[10] = tested on: Arabidopsis mutant line Cesa1_G1009D; assay: as above; conditions: growth inhibition seven to ten days after seeding
Text: as §2, §3

[11] = tested on: Arabidopsis mutant line Cesa3_S1040L; assay: as above; conditions: growth inhibition seven to ten days after seeding
Text: as §2, §3

[12] = tested on: Arabidopsis mutant line Cesa3_S1037F; assay: as above; conditions: growth inhibition seven to ten days after seeding
Text: as §2, §3

[13] = tested on: Arabidopsis mutant line Cesa3_S983F; assay: as above; conditions: growth inhibition seven to ten days after seeding
Text: as §2, §3

[14] = tested on: Arabidopsis mutant line Cesa1_G1013R; assay: as above; conditions: growth inhibition seven to ten days after seeding
Text: as §2, §3

Row | Compound | Phytotox value on a scale from 0-100 (100 is 100% damage) ([1]; 0.98 g ai/ha) | Phytotox value on a scale from 0-100 (100 is 100% damage) ([1]; 3.91 g ai/ha) | Phytotox value on a scale from 0-100 (100 is 100% damage) ([2]; 0.98 g ai/ha) | Phytotox value on a scale from 0-100 (100 is 100% damage) ([2]; 3.91 g ai/ha) | Phytotox value on a scale from 0-100 (100 is 100% damage) ([3]; 0.98 g ai/ha) | Phytotox value on a scale from 0-100 (100 is 100% damage) ([3]; 3.91 g ai/ha) | Phytotox value on a scale from 0-100 (100 is 100% damage) ([4]; 0.98 g ai/ha) | Phytotox value on a scale from 0-100 (100 is 100% damage) ([4]; 3.91 g ai/ha) | Phytotox value on a scale from 0-100 (100 is 100% damage) ([5]; 0.98 g ai/ha) | Phytotox value on a scale from 0-100 (100 is 100% damage) ([5]; 3.91 g ai/ha) | Phytotox value on a scale from 0-100 (100 is 100% damage) ([6]; 0.98 g ai/ha) | Phytotox value on a scale from 0-100 (100 is 100% damage) ([6]; 3.91 g ai/ha) | Phytotox value on a scale from 0-100 (100 is 100% damage) ([7]; 0.98 g ai/ha) | Phytotox value on a scale from 0-100 (100 is 100% damage) ([7]; 3.91 g ai/ha) | Relative tolerance rate (wildtype = 1.0) [8] | Relative tolerance rate (wildtype = 1.0) [9] | Relative tolerance rate (wildtype = 1.0) [10] | Relative tolerance rate (wildtype = 1.0) [11] | Relative tolerance rate (wildtype = 1.0) [12] | Relative tolerance rate (wildtype = 1.0) [13] | also measured
1 | CC(C)(F)c1nc(N)nc(Nc2c(F)c(F)c(F)c(F)c2F)n1 [6-(1-fluoro-1-methyl-ethyl)-N4-(2,3,4,5,6-pentafluorophenyl)-1,3,5-triazine-2,4-diamine] | 99 | 100 | 75 | 98 | 63 | 97 | 97 | 100 | 75 | 98 | 30 | 80 | 100 | 100 | 1 | 1 | 2 | 2 | 4 | 1 | Phytotox value on a scale from 0-100 (100 is 100% damage) ([1]; 0.0625 g ai/ha): 43; Phytotox value on a scale from 0-100 (100 is 100% damage) ([1]; 0.25 g ai/ha): 50; Phytotox value on a scale from 0-100 (100 is 100% damage) ([2]; 0.0625 g ai/ha): 78; Phytotox value on a scale from 0-100 (100 is 100% damage) ([2]; 0.25 g ai/ha): 45; Phytotox value on a scale from 0-100 (100 is 100% damage) ([3]; 0.0625 g ai/ha): 13; Phytotox value on a scale from 0-100 (100 is 100% damage) ([3]; 0.25 g ai/ha): 65; Phytotox value on a scale from 0-100 (100 is 100% damage) ([4]; 0.0625 g ai/ha): 65; Phytotox value on a scale from 0-100 (100 is 100% damage) ([4]; 0.25 g ai/ha): 78; Phytotox value on a scale from 0-100 (100 is 100% damage) ([5]; 0.0625 g ai/ha): 20; Phytotox value on a scale from 0-100 (100 is 100% damage) ([5]; 0.25 g ai/ha): 65; Phytotox value on a scale from 0-100 (100 is 100% damage) ([6]; 0.0625 g ai/ha): 10; Phytotox value on a scale from 0-100 (100 is 100% damage) ([6]; 0.25 g ai/ha): 20; Phytotox value on a scale from 0-100 (100 is 100% damage) ([7]; 0.0625 g ai/ha): 38; Phytotox value on a scale from 0-100 (100 is 100% damage) ([7]; 0.25 g ai/ha): 78; Relative tolerance rate (wildtype = 1.0) [14]: 4
2 | Nc1nc(Nc2c(F)c(F)cc(F)c2F)nc(-c2c(F)cccc2F)n1 [6-(2,6-difluorophenyl)-N2-(2,3,5,6-tetrafluorophenyl)-1,3,5-triazine-2,4-diamine] | 48 | 35 | 18 | 35 | 15 | 35 | 65 | 38 | 13 | 8 | 28 | 65 | 30 | 70 | 2 | 1 | 1 | 13 | 1 | 1 | Phytotox value on a scale from 0-100 (100 is 100% damage) ([1]; 15.63 g ai/ha): 65; Phytotox value on a scale from 0-100 (100 is 100% damage) ([1]; 62.5 g ai/ha): 98; Phytotox value on a scale from 0-100 (100 is 100% damage) ([2]; 15.63 g ai/ha): 43; Phytotox value on a scale from 0-100 (100 is 100% damage) ([2]; 62.5 g ai/ha): 33; Phytotox value on a scale from 0-100 (100 is 100% damage) ([3]; 15.63 g ai/ha): 28; Phytotox value on a scale from 0-100 (100 is 100% damage) ([3]; 62.5 g ai/ha): 40; Phytotox value on a scale from 0-100 (100 is 100% damage) ([4]; 15.63 g ai/ha): 18; Phytotox value on a scale from 0-100 (100 is 100% damage) ([4]; 62.5 g ai/ha): 95; Phytotox value on a scale from 0-100 (100 is 100% damage) ([5]; 15.63 g ai/ha): 25; Phytotox value on a scale from 0-100 (100 is 100% damage) ([5]; 62.5 g ai/ha): 28; Phytotox value on a scale from 0-100 (100 is 100% damage) ([6]; 15.63 g ai/ha): 73; Phytotox value on a scale from 0-100 (100 is 100% damage) ([6]; 62.5 g ai/ha): 99; Phytotox value on a scale from 0-100 (100 is 100% damage) ([7]; 15.63 g ai/ha): 90; Phytotox value on a scale from 0-100 (100 is 100% damage) ([7]; 62.5 g ai/ha): 100; Relative tolerance rate (wildtype = 1.0) [14]: 13
3 | Nc1nc(Nc2c(F)c(F)c(F)c(F)c2F)nc(C2CCCCC2)n1 [6-cyclohexyl-N2-(2,3,4,5,6-pentafluorophenyl)-1,3,5-triazine-2,4-diamine] |  |  |  |  |  |  |  |  |  |  |  |  |  |  | 1 | 1 | 1 | 10 | 1 | 1 | Relative tolerance rate (wildtype = 1.0) [14]: 4
4 | CC(C)(F)c1nc(N)nc(Nc2c(F)c(F)c(Br)c(F)c2F)n1 [N4-(4-bromo-2,3,5,6-tetrafluoro-phenyl)-6-(1-fluoro-1-methyl-ethyl)-1,3,5-triazine-2,4-diamine] | 25 | 88 | 23 | 25 | 10 | 35 | 35 | 68 | 5 | 63 | 18 | 33 | 35 | 97 |  |  |  |  |  |  | Phytotox value on a scale from 0-100 (100 is 100% damage) ([1]; 0.25 g ai/ha): 25; Phytotox value on a scale from 0-100 (100 is 100% damage) ([1]; 15.63 g ai/ha): 99; Phytotox value on a scale from 0-100 (100 is 100% damage) ([2]; 0.25 g ai/ha): 35; Phytotox value on a scale from 0-100 (100 is 100% damage) ([2]; 15.63 g ai/ha): 45; Phytotox value on a scale from 0-100 (100 is 100% damage) ([3]; 0.25 g ai/ha): 10; Phytotox value on a scale from 0-100 (100 is 100% damage) ([3]; 15.63 g ai/ha): 73; Phytotox value on a scale from 0-100 (100 is 100% damage) ([4]; 0.25 g ai/ha): 50; Phytotox value on a scale from 0-100 (100 is 100% damage) ([4]; 15.63 g ai/ha): 99; Phytotox value on a scale from 0-100 (100 is 100% damage) ([5]; 0.25 g ai/ha): 13; Phytotox value on a scale from 0-100 (100 is 100% damage) ([5]; 15.63 g ai/ha): 93; Phytotox value on a scale from 0-100 (100 is 100% damage) ([6]; 0.25 g ai/ha): 28; Phytotox value on a scale from 0-100 (100 is 100% damage) ([6]; 15.63 g ai/ha): 30; Phytotox value on a scale from 0-100 (100 is 100% damage) ([7]; 0.25 g ai/ha): 8; Phytotox value on a scale from 0-100 (100 is 100% damage) ([7]; 15.63 g ai/ha): 100
